Values of other authors as cited in US20150320096A1, “Dietary Supplement” (MC Corp., priority 2013, published 2015).
One block for each molecule: values may come before it.

Assays:
[1] = oral
[2] = oral administration
[3] = tested on: glut-4 transporters; details: muscle tissue

ingested dose absorbed by diffusion process [1]: approximately 1%
Structure (SMILES): C/C1=C2/[N-][C@H]([C@H](CC(N)=O)[C@@]2(C)CCC(=O)NC[C@@H](C)OP(=O)([O-])O[C@H]2[C@@H](O)[C@@H](n3cnc4cc(C)c(C)cc43)O[C@@H]2CO)[C@]2(C)N=C(/C(C)=C3N=C(/C=C4N=C1[C@@H](CCC(N)=O)C\4(C)C)[C@@H](CCC(N)=O)[C@]\3(C)CC(N)=O)[C@@H](CCC(N)=O)[C@]2(C)CC(N)=O.[CH3-].[Co+3] [Methylcobalamin]
burning sensations, numbness, loss of sensation, and muscle cramps [2]: subjective improvement

Structure (SMILES): O=C(O)CCCCC1CCSS1 (stereo not drawn) [ALA, Alpha-Lipoic Acid]
increase in the number of glut-4 transporters on the outside of the muscle cells [3]: ≤ 50%

increase of plasma coenzyme Q10 (dietary supplementation, patients with diabetes): at least 3 fold
Structure (SMILES): COC1=C(OC)C(=O)C(C/C=C(\C)CC/C=C(\C)CC/C=C(\C)CC/C=C(\C)CC/C=C(\C)CC/C=C(\C)CC/C=C(\C)CC/C=C(\C)CC/C=C(\C)CCC=C(C)C)=C(C)C1=O [coenzyme Q10, Coenzyme Q10]
blood glucose levels (dietary supplementation): significantly reduce
hemoglobin A1C (HbA1C) (dietary supplementation): lower
blood pressure (patients with diabetes): significantly lowered
insulin requirements (patients with diabetes): reduce
